How the values were obtained:
Colon_HCT116 = test: Cell proliferation assay (ATPlite); assay type: cell-based; settings: 72 hours, 0.5% fetal bovine serum
Method: (§1) A representative number of compounds were assayed against several different cell lines using the cell proliferation assay:
(§2) Cell Proliferation Assay:
(§3) Cancer cell lines were plated at 5,000 to 10,000 per well in 96-well flatted bottomed plates with various concentration of compounds. The cells were incubated with compounds for 72 hours in the presence of 0.5% of fetal bovine serum. Growth inhibition was accessed by adenosine triphosphate (ATP) content assay using Perkin Elmer ATPlite kit. ATPlite is an ATP monitoring system based on firefly luciferase. Briefly, 25 μl of mammalian cell lysis solution was added to 50 μl of phenol red-free culture medium per well to lyse the cells and stabilize the ATP. 25 μl of substrate solution was then added to the well and subsequently the luminescence was measured.

Pancreas_CFPAC = test: Cell proliferation assay (ATPlite); assay type: cell-based; settings: 72 hours, 0.5% fetal bovine serum
Method: as §1, §2, §3

Pancreas_MiaPaCa2 = test: Cell proliferation assay (ATPlite); assay type: cell-based; settings: 72 hours, 0.5% fetal bovine serum
Method: as §1, §2, §3

Pancreas_HPAC = test: Cell proliferation assay (ATPlite); assay type: cell-based; settings: 72 hours, 0.5% fetal bovine serum
Method: as §1, §2, §3

Pancreas_PANC1 = test: Cell proliferation assay (ATPlite); assay type: cell-based; settings: 72 hours, 0.5% fetal bovine serum
Method: as §1, §2, §3

A549 NSCLC = A549 NSCLC Xenograft model; assay type: in vivo, mice; settings: compared with vehicle or control
Method: A representative protocol for the in vivo experiment is as followed:
1-10×10^6 human cancer cells were implanted subcutaneously to the athymic (nu/nu) mice. When the tumors reached about 100 mm^3 in volume, the mice were treated with the compound by tail vein infusion. Routinely 5 groups (8-12 mice per group) are needed for a typical efficacy study, including one negative control, one positive control, and three testing groups for 3 dose levels of the same compound. Usually a 7-7-5 (on-off-on) regimen was used for one typical study. The tumor size was measured with an electronic caliper and body weight measured with a scale twice weekly. The tumors were removed from euthanized mice at the end of the study. One half of each tumor was frozen in dry ice and stored at −80° C. for PK or Western blot analysis. The other half was fixed with formalin. The fixed tissues were processed, embedded in paraffin and sectioned for immunohistochemistry staining. Protocol for Radioisotope assay for HER2

Pancreas_BxPC3 = test: Cell proliferation assay (ATPlite); assay type: cell-based; settings: 72 hours, 0.5% fetal bovine serum
Method: as §1, §2, §3

human EGFR = biological target: T1, human EGFR (Homo sapiens, UniProt P00533); test: HTScan EGF Receptor Kinase assay; assay type: biochemical
T1 construct: human EGFR (His672-Ala1210); purchased Cell Signaling Technologies; host or cells: baculovirus expression system
T1 sequence (P00533 672-1210): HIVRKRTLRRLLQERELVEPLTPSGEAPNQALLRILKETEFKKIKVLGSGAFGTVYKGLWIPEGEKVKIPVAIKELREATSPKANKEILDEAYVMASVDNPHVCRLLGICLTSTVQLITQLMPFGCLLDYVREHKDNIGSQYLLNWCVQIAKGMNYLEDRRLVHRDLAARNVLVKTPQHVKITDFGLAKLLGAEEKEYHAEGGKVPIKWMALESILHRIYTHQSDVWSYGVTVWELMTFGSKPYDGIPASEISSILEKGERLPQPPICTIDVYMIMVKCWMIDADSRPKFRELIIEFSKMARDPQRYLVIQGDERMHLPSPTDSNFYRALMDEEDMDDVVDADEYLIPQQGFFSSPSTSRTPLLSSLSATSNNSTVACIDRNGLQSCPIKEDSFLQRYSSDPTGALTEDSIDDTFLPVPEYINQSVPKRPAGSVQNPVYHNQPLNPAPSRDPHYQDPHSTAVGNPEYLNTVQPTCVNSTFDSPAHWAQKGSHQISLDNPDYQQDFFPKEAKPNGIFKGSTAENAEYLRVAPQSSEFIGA
Method: The ability of compounds to inhibit receptor kinase (EGFR) activity was assayed using HTScan™ EGF Receptor Kinase Assay Kits (Cell Signaling Technologies, Danvers, Mass.). […] The protein was purified by one-step affinity chromatography using glutathione-agarose.
Immediately transfer enzyme from −80° C. to ice. Allowed enzyme to thaw on ice. […] Returned immediately to ice. […] Incubated reaction plate at room temperature for 30 minutes. […] Added 100 μl/well primary antibody. Incubated at room temperature for 60 minutes. […] Added 100 μl/well diluted antibody. Incubated at room temperature for 30 minutes. […] Incubated at room temperature for 5 minutes.

HDAC = tested on: T2, HDAC; test: HDAC fluorimetric enzyme assay (HeLa nuclear extract); assay type: biochemical; settings: FIG. 1
T2 construct: rows headed: HDAC IC50
Method: HDAC inhibitors were screened using an HDAC fluorimetric assay kit (AK-500, Biomol, Plymouth Meeting, Pa.). […] Fluorescence was measured on a WALLAC Victor 2 plate reader and reported as relative fluorescence units (RFU). Data were plotted using GraphPad Prism (v4.0a) and IC50's calculated using a sigmoidal dose response curve fitting algorithm. Each assay was setup as follows: Defrosted all kit components and kept on ice until use. […] Prepared dilutions of Trichostatin A (TSA, positive control) and tested compounds in assay buffer (5× of final concentration). Diluted Fluor de Lys™ Substrate in assay buffer to 100 uM (50 fold=2× final). Diluted Fluor de Lys™ developer concentrate 20-fold (e.g. 50 μl plus 950 μl Assay Buffer) in cold assay buffer. Second, diluted the 0.2 mM Trichostatin A 100-fold in the 1× Developer (e.g. 10 μl in 1 ml; final Trichostatin A concentration in the 1× Developer=2 μM; final concentration after addition to HDAC/Substrate reaction=1 μM). Added Assay buffer, diluted trichostatin A or test inhibitor to appropriate wells of the microtiter plate. Added diluted HeLa extract or other HDAC sample to all wells except for negative controls.

Lung_H460 = test: Cell proliferation assay (ATPlite); assay type: cell-based; settings: 72 hours, 0.5% fetal bovine serum
Method: as §1, §2, §3

Lung_H1975 = test: Cell proliferation assay (ATPlite); assay type: cell-based; settings: 72 hours, 0.5% fetal bovine serum
Method: as §1, §2, §3

Lung_H2122 = test: Cell proliferation assay (ATPlite); assay type: cell-based; settings: 72 hours, 0.5% fetal bovine serum
Method: as §1, §2, §3

Pancreas_Capan1 = test: Cell proliferation assay (ATPlite); assay type: cell-based; settings: 72 hours, 0.5% fetal bovine serum
Method: as §1, §2, §3

Prostate_PC3 = test: Cell proliferation assay (ATPlite); assay type: cell-based; settings: 72 hours, 0.5% fetal bovine serum
Method: as §1, §2, §3

Lung_H358 = test: Cell proliferation assay (ATPlite); assay type: cell-based; settings: 72 hours, 0.5% fetal bovine serum
Method: as §1, §2, §3

Lung_HCC827 = test: Cell proliferation assay (ATPlite); assay type: cell-based; settings: 72 hours, 0.5% fetal bovine serum
Method: Cancer cell lines were plated at 5,000 to 10,000 per well in 96-well flatted bottomed plates with various concentration of compounds. […] Growth inhibition was accessed by adenosine triphosphate (ATP) content assay using Perkin Elmer ATPlite kit. […] Briefly, 25 μl of mammalian cell lysis solution was added to 50 μl of phenol red-free culture medium per well to lyse the cells and stabilize the ATP. 25 μl of substrate solution was then added to the well and subsequently the luminescence was measured.

Lung_H1703 = test: Cell proliferation assay (ATPlite); assay type: cell-based; settings: 72 hours, 0.5% fetal bovine serum
Method: as §1, §2, §3

Dilution study with D5W = assay type: physicochemical; settings: 30% CAPTISOL solution

Molecule	IC50 (Pancreas_CFPAC) [µM]	IC50 (Pancreas_MiaPaCa2) [µM]	IC50 (Pancreas_HPAC) [µM]	IC50 (Pancreas_PANC1) [µM]	IC50 (Pancreas_BxPC3) [µM]	other results
O=C(CCCCCCOc1ccc2ncnc(Nc3ccc(F)c(Cl)c3)c2c1)NO [Compound 18, 7-(4-(3-chloro-4-fluorophenylamino)quinazolin-6-yloxy)-N-hydroxyheptanamide]	0.1 to 1	0.1 to 1	1 to 10	0.1 to 1	–	IC50 (Colon_HCT116): 0.1 to 1 µM
COc1cc2ncnc(N[C@H](C)c3ccccc3)c2cc1OCCCCCCC(=O)NO [Compound 79, (R)—N-hydroxy-7-(7-methoxy-4-(1-phenylethylamino)quinazolin-6-yloxy)heptanamide]	1 to 10	1 to 10	> 10	1 to 10	–	–
COc1cc2ncnc(Nc3ccc(F)c(Cl)c3)c2cc1NC(=O)CCCCCCC(=O)NO [Compound 40, N^1-(4-(3-chloro-4-fluorophenylamino)-7-methoxyquinazolin-6-yl)-N^8-hydroxyoctanediamide]	1 to 10	1 to 10	1 to 10	1 to 10	–	–
C#Cc1cccc(Nc2ncnc3cc(OCCOC)c(OCCOC)cc23)c1 [Erlotinib, reference compound]	–	–	–	–	–	effect on tumor size / tumor growth (A549 NSCLC): did not significantly affect tumor size
COc1cc2ncnc(NCc3ccccc3)c2cc1OCCCCCCC(=O)NO [Compound 85, 7-(4-(Benzylamino)-7-methoxyquinazolin-6-yloxy)-N-hydroxyheptanamide]	–	1 to 10	1 to 10	1 to 10	0.1 to 1	IC50 (Colon_HCT116): 0.1 to 1 µM
COc1cc2ncnc(N[C@H](C)c3ccccc3)c2cc1OCCCCCC(=O)NO [Compound 77, (R)—N-hydroxy-6-(7-methoxy-4-(1-phenylethylamino)quinazolin-6-yloxy)-hexanamide]	1 to 10	0.1 to 1	> 10	> 10	–	–
COc1cc2ncnc(Nc3ccc(F)c(Cl)c3)c2cc1OCCCCCCC(=O)NO [Compound 6, 7-(4-(3-Chloro-4-fluorophenylamino)-7-methoxyquinazolin-6-yloxy)-N-hydroxyheptanamide]	–	–	–	–	0.1 to 1	activity in EFGR enzyme assay compared with erlotinib and SAHA (human EGFR; FIG. 1): more active than erlotinib and SAHA; activity in HDAC enzyme assay compared with erlotinib and SAHA (HDAC): more active than erlotinib and SAHA; IC50 (Lung_H460): 0.1 to 1 µM; IC50 (Lung_H1975): 0.1 to 1 µM; IC50 (Lung_H2122): 0.1 to 1 µM; IC50 (Pancreas_Capan1): 1 to 10 µM; IC50 (Prostate_PC3): 0.1 to 1 µM; IC50 (Lung_H358): 0.1 to 1 µM
C#Cc1cccc(Nc2ncnc3cc(OC)c(NC(=O)CCCCCCC(=O)NO)cc23)c1 [Compound 44, N^1-(4-(3-ethynylphenylamino)-7-methoxyquinazolin-6-yl)-N^8-hydroxyoctanediamide]	–	–	–	–	1 to 10	IC50 (Lung_HCC827): 0.1 to 1 µM; IC50 (Lung_H460): 1 to 10 µM; IC50 (Lung_H1975): 1 to 10 µM; IC50 (Lung_H2122): 1 to 10 µM; IC50 (Pancreas_Capan1): 1 to 10 µM; IC50 (Lung_H1703): 1 to 10 µM; IC50 (Lung_H358): 1 to 10 µM
COCCOc1cc2ncnc(Nc3ccc(F)c(Cl)c3)c2cc1NC(=O)CCCCCCC(=O)NO [Compound 70, N^1-(4-(3-chloro-4-fluorophenylamino)-7-(2-methoxyethoxy)quinazolin-6-yl)-N^8-hydroxyoctanediamide]	1 to 10	1 to 10	> 10	1 to 10	–	IC50 (human EGFR): < 0.1 µM
Tartaric Acid	–	–	–	–	–	Dilution with D5W (Dilution study with D5W): >50x
COc1cc2ncnc(Nc3ccc(F)c(Cl)c3)c2cc1OCCOc1ccc(C(=O)NO)cc1 [Compound 92, 4-(2-(4-(3-chloro-4-fluorophenylamino)-7-methoxyquinazolin-6-yloxy)ethoxy)-N-hydroxybenzamide]	–	–	–	–	–	IC50 (human EGFR): < 0.1 µM
COc1cc2ncnc(Nc3ccc(F)c(Cl)c3)c2cc1OCCOc1ccc(/C=C/C(=O)NO)cc1 [Compound 66, (E)-3-(4-(2-(4-(3-chloro-4-fluorophenylamino)-7-methoxyquinazolin-6-yloxy)ethoxy)phenyl)-N-hydroxyacrylamide]	–	1 to 10	1 to 10	1 to 10	1 to 10	–
